Measured values published in PMC9967013, “A Theranostic Small-Molecule Prodrug Conjugate for Neuroendocrine Prostate Cancer” (Pharmaceutics, 2023).
Like-named read-outs stand apart in the source and are kept apart here.

What was measured:
PC3 cells = assay: Cell viability assay (MTT); type: cell-based, human; details: OD 570 nm, read-out: EC50 (cytotoxicity)
Procedure: PC3 cells (3000–5000 cells/well) were seeded onto a 96-well plate. After one day, freshly prepared RPMI media containing different concentrations (0, 1, 5, 10 µM; n = 5) of FTY720 (Selleckchem, Houston, TX, USA) or compound 10 (0, 1, 3, 15, 30 µM; n = 5) were added to the cells, and the mixtures were incubated for 48 or 72 h. The relative number of viable cells was determined by an assay using 3-(4,5-dimethylthiazol-2-yl) -2,5-diphenyltetrazolium bromide (MTT) (Sigma-Aldrich, Saint-Louis, MO, USA), according to the manufacturer’s instructions, on a microplate reader at OD 570 nm. The experiment was repeated in triplicate, and data were represented as the mean ± standard deviation (s.d).

[1] = system: SSTR2^high PC3_VC xenografts; assay: Small animal PET/CT imaging, tumor uptake in SSTR2^high xenograft; details: same mice, i.v. 3–4.4 MBq, 60-min dynamic PET
[2] = system: SSTR2^low PC3_sgPTP1B xenografts; assay: Small animal PET/CT imaging, tumor uptake in SSTR2^low xenograft; details: same mice, i.v. 3–4.4 MBq, 60-min dynamic PET
human cathepsin B = molecular target: T1, human cathepsin B (Homo sapiens, UniProt P07858); assay: In vitro cathepsin-B-mediated release assay; type: in vitro ADME; details: 37 °C, 1 h
T1 construct: purchased Sino Biological Inc
Procedure: A comparative cathepsin-B-mediated release assay was performed with compound 13 in the presence vs. absence of human cathepsin B (Sino Biological Inc., Chesterbrook, PA, USA). Briefly, compound 13 (150 µg) was dissolved in 60 µL of 100 mM citrate buffer (pH 5.5), followed by adding 300 µg of cysteine. Then, 20 µg of human cathepsin B in 40 µL of 100 mM citrate buffer was added to the mixture and incubated at 37 °C for 1 h. At the end of the incubation, the solution (20 µL) was sampled for HPLC and LC–MS analysis. Controls of this assay included compound 13 without being exposed to cathepsin B, as well as cathepsin B itself processed under the same conditions.

[3] = system: SSTR2^high AR42J and SSTR2^low PC3-Flu cells; assay: SSTR2-selective cell uptake assay; type: cell-based; details: 1 h incubation at r.t., binding buffer (20 mM tris, 150 mM NaCl, pH 7.4), ~7.1 × 10^5 CPM, gamma counting, uptake in SSTR2^low cells set at 1, n = 3
SSTR2^high AR42J cells = assay: Internalization assay; type: cell-based; details: after 60 min, ~5 × 10^5 CPM, acid strip (glycine pH 3.0), gamma counting, n = 3

Compound: CCCCCCCCc1ccc(CCC(CO)(CO)NC(=O)OCc2ccc(NC(=O)[C@H](CCCNC(N)=O)NC(=O)[C@@H](NC(=O)CCOCCOCCOCCN=[N+]=[N-])C(C)C)cc2)cc1 [Compound 10, Val-Cit-pABOC-FTY720]
- EC50 (PC3 cells; 48 h incubation): > 15 µM
- EC50 (PC3 cells; 72 h incubation): > 15 µM

Compound: CCCCCCCCc1ccc(CCC(N)(CO)CO)cc1 [FTY720, fingolimod, reference compound]
- EC50 (PC3 cells; Homo sapiens, PC-3, 48 h incubation): ~5 µM
- EC50 (PC3 cells; Homo sapiens, PC-3, 72 h incubation): ~5 µM

Compound: O=C([O-])CN(CCN(CC(=O)[O-])Cc1cc(CCC(=O)NCCCCCC(=O)NCCCC[C@H](NC(=O)N[C@@H](CCC(=O)O)C(=O)O)C(=O)O)ccc1[O-])Cc1cc(CCC(=O)O)ccc1[O-].[68Ga+3].[OH3+] [[^68Ga]Ga-PSMA-11]
- tumor uptake in SSTR2^high PC3-VC tumors (in words) [1]: low uptake
- tumor uptake in SSTR2^low PC3_sgPTP1B tumors (in words) [2]: low uptake

Compound: DOTA-PEG3-TZ(PEG4-Octr)-PEG2-Trz-PEG3-Val-Cit-pABOC-FTY720 (disulfide) [Compound 13]
- cathepsin-B-mediated release of FTY720 (human cathepsin B; 150 µg compound, 20 µg human cathepsin B, 100 mM citrate buffer pH 5.5, cysteine, HPLC and LC-MS read-out): cathepsin-B-mediated release of FTY720 was further confirmed
- release of FTY720 in the absence of cathepsin B (control) (human cathepsin B; same conditions without cathepsin B: 100 mM citrate buffer pH 5.5, cysteine, LC-MS read-out (FTY720 peak 366.0488 [M + 2H2O + Na]+)): the peak of 366.0488 was absent

Compound: [^64Cu]Cu-DOTA-PEG3-TZ(PEG4-Octr)-PEG2-Trz-PEG3-Val-Cit-pABOC-FTY720 (disulfide)
- normalized uptake, accumulation in SSTR2^high AR42J cells relative to SSTR2^low PC3-Flu cells [3]: six-fold higher
- internalized percentage (Internalized/Total Bound%) (SSTR2^high AR42J cells): approximately 40%
